In ChEMBL document CHEMBL4251741, “Amidate Prodrugs of Cyclic 9-(S)-[3-Hydroxy-2-(phosphonomethoxy)propyl]adenine with Potent Anti-Herpesvirus Activity” (ACS Med Chem Lett, 2018):

What was measured:
Human alphaherpesvirus 1 [1] = assay: Antiviral activity against ACV-resistant thymidine kinase deficient Herpes simplex virus 1 KOS infected in HEL cells assessed as inhibition of virus-induced cytopathic effect measured after 2 to 3 days post-infection; type: functional, organism-based; settings: Human alphaherpesvirus 1, KOS
[2] = Cytotoxicity against HEL cells assessed as morphological changes after 3 days by microscopic analysis; type: cell-based; settings: human
Human alphaherpesvirus 1 [3] = assay: Antiviral activity against Herpes simplex virus 1 KOS infected in HEL cells assessed as inhibition of virus-induced cytopathic effect measured after 2 to 3 days post-infection; type: functional, organism-based; settings: Human alphaherpesvirus 1, KOS
Human alphaherpesvirus 2 = assay: Antiviral activity against Herpes simplex virus 2 G infected in HEL cells assessed as inhibition of virus-induced cytopathic effect measured after 2 to 3 days post-infection; type: functional, organism-based; settings: Human alphaherpesvirus 2, strain G
[4] = Cytotoxicity against HEL cells assessed as reduction in cell viability after 3 days by coulter counting method; type: cell-based; settings: human
Human betaherpesvirus 5 [5] = assay: Antiviral activity against Human cytomegalovirus AD169 infected in HEL cells assessed as inhibition of virus-induced cytopathic effect measured after 6 to 7 days post-infection; type: functional, organism-based; settings: Human betaherpesvirus 5, AD169, HEL
[6] = Selectivity index, ratio of CC50 for HEL cells to EC50 for Herpes simplex virus 2 G infected in HEL cells; type: toxicity, cell-based; settings: human, read-out: Ratio CC50/EC50
[7] = Selectivity index, ratio of CC50 for HEL cells to EC50 for ACV-resistant thymidine kinase deficient Herpes simplex virus 1 KOS infected in HEL cells; type: toxicity, cell-based; settings: human, read-out: Ratio CC50/EC50
Human alphaherpesvirus 3 [8] = assay: Antiviral activity against thymidine kinase expressing Varicella-Zoster virus Oka assessed as inhibition of plaque formation measured after 5 days post-infection; type: functional, organism-based; settings: Human alphaherpesvirus 3, strain Oka vaccine, 120 h
Human alphaherpesvirus 3 [9] = assay: Antiviral activity against thymidine kinase deficient Varicella-Zoster virus 07-1 assessed as inhibition of plaque formation measured after 5 days post-infection; type: functional, organism-based; settings: Human alphaherpesvirus 3, 07-1, 120 h
Human betaherpesvirus 5 [10] = assay: Antiviral activity against Human cytomegalovirus Davis infected in HEL cells assessed as inhibition of virus-induced cytopathic effect measured after 6 to 7 days post-infection; type: functional, organism-based; settings: Human betaherpesvirus 5, Davis
[11] = Selectivity index, ratio of CC50 for HEL cells to EC50 for Herpes simplex virus 1 KOS infected in HEL cells; type: toxicity, cell-based; settings: human, read-out: Ratio CC50/EC50
[12] = Half life in human liver microsomes at 0.1 uM in presence of NADPH-generating system by HPLC-MS/MS analysis; type: ADME, microsome
[13] = Half life in human plasma at 1 uM by HPLC-MS/MS analysis; type: ADME, cell-free
[14] = Selectivity index, ratio of CC50 for HEL cells to EC50 for thymidine kinase deficient Varicella-Zoster virus 07-1 infected in HEL cells; type: toxicity, cell-based; settings: human, read-out: Ratio CC50/EC50
[15] = Selectivity index, ratio of CC50 for HEL cells to EC50 for Human cytomegalovirus Davis infected in HEL cells; type: toxicity, cell-based; settings: read-out: Ratio CC50/EC50
[16] = Selectivity index, ratio of CC50 for HEL cells to EC50 for thymidine kinase expressing Varicella-Zoster virus Oka infected in HEL cells; type: toxicity, cell-based; settings: human, read-out: Ratio CC50/EC50
[17] = Selectivity index, ratio of CC50 for HEL cells to EC50 for Human cytomegalovirus AD169 infected in HEL cells; type: toxicity, cell-based; settings: read-out: Ratio CC50/EC50

Compound | EC50 (Human alphaherpesvirus 1 [1]) | MCC at 72 h [2] | EC50 (Human alphaherpesvirus 1 [3]) | EC50 (Human alphaherpesvirus 2) | CC50 at 72 h [4] | EC50 (Human betaherpesvirus 5 [5]) | selectivity ratio [6] | selectivity ratio [7] | EC50 (Human alphaherpesvirus 3 [8]) | EC50 (Human alphaherpesvirus 3 [9]) | EC50 (Human betaherpesvirus 5 [10]) | selectivity ratio [11] | half-life at 0.1 µM [12] | half-life at 1 µM [13] | selectivity ratio [14] | selectivity ratio [15] | selectivity ratio [16] | selectivity ratio [17]
Nc1ccn(C[C@@H](CO)OCP(=O)(O)O)c(=O)n1 [CIDOFOVIR] | 1950 nM | > 71.6 µM | 4180 nM | 2730 nM | > 358000 nM | – | – | – | – | – | – | – | – | – | – | – | – | –
Nc1nc2c(ncn2COC(CO)CO)c(=O)[nH]1 [GANCICLOVIR] | > 29500 nM | > 39.2 µM | – | 51 nM | > 319000 nM | 7410 nM | – | – | – | – | – | – | – | – | – | – | – | –
CCCCCOC(=O)[C@H](Cc1ccccc1)NP1(=O)CO[C@@H](Cn2cnc3c(N)ncnc32)CO1 (stereo partly drawn) | 1.5 nM | 9.29 µM | 3.5 nM | 2.3 nM | 30600 nM | 31 nM | > 4400 | > 4400 | 0.52 nM | 3.2 nM | 17 nM | > 4400 | – | – | – | – | – | –
CCCCCOC(=O)[C@H](CC(C)C)NP1(=O)CO[C@@H](Cn2cnc3c(N)ncnc32)CO1 (stereo partly drawn) | 1.3 nM | 4.27 µM | 1.3 nM | 1.9 nM | 1620 nM | 5.7 nM | – | – | 0.47 nM | 0.59 nM | 3.8 nM | – | 16 min | 84 min | – | – | – | –
Nc1nc2c(ncn2COCCO)c(=O)[nH]1 [ACYCLOVIR] | – | > 88.8 µM | – | – | – | – | – | – | – | – | – | – | – | – | – | – | – | –
CCCCCOC(=O)CC[C@H](NP1(=O)CO[C@@H](Cn2cnc3c(N)ncnc32)CO1)C(=O)OCCCCC (stereo partly drawn) | 1.2 nM | 13.2 µM | 1.2 nM | 2.5 nM | 520 nM | 14 nM | – | – | 0.58 nM | 0.95 nM | 7.6 nM | – | – | – | – | – | – | –
O=c1[nH]c(=O)n([C@H]2C[C@H](O)[C@@H](CO)O2)cc1/C=C/Br [BRIVUDINE] | > 30000 nM | > 30 µM | – | > 30000 nM | > 300000 nM | – | – | – | 53 nM | 22100 nM | – | – | – | – | – | – | – | –
CCCCCOC(=O)[C@@H](NP1(=O)CO[C@@H](Cn2cnc3c(N)ncnc32)CO1)C(C)C (stereo partly drawn) | 1.8 nM | 4.4 µM | 3 nM | 4.2 nM | 7760 nM | 5.9 nM | – | – | 0.57 nM | 1.5 nM | 4.8 nM | – | – | – | – | – | – | –
CCCCCOC(=O)C[C@H](NP1(=O)CO[C@@H](Cn2cnc3c(N)ncnc32)CO1)C(=O)OCCCCC (stereo partly drawn) | 7.3 nM | 13.6 µM | 3.2 nM | 2 nM | 2730 nM | 27 nM | – | – | 1.4 nM | 1.5 nM | 9 nM | – | 4 min | 22 min | – | – | – | –
CCCCCOC(=O)CC(NP1(=O)COC(Cn2cnc3c(N)ncnc32)CO1)C(=O)OCCCCC (single isomer, unassigned) | 76 nM | > 18.5 µM | 210 nM | 110 nM | 11600 nM | 4390 nM | – | – | 33 nM | 62 nM | 1620 nM | – | – | – | – | – | – | –
CCCCCOC(=O)[C@H](C)NP1(=O)CO[C@@H](Cn2cnc3c(N)ncnc32)CO1 (stereo partly drawn) | 10 nM | 23.5 µM | 20 nM | 17 nM | 3400 nM | 64 nM | – | – | 2 nM | 4.3 nM | 65 nM | – | – | – | – | – | – | –
Nc1nc2c(ncn2CCC(CO)CO)c(=O)[nH]1 [PENCICLOVIR] | > 79000 nM | > 79 µM | 480 nM | 840 nM | > 395000 nM | – | – | – | – | – | – | – | – | – | – | – | – | –
CCCCCOC(=O)[C@@H](NP(=O)(CO[C@H](CO)Cn1cnc2c(N)ncnc21)N[C@H](C(=O)OCCCCC)C(C)C)C(C)C | 0.9 nM | 8.57 µM | 2.3 nM | 2.8 nM | 600 nM | 100 nM | – | – | 1.5 nM | 0.95 nM | 72 nM | – | 4 min | > 120 min | – | – | – | –
CCCCCOC(=O)[C@H](CCSC)NP1(=O)CO[C@@H](Cn2cnc3c(N)ncnc32)CO1 (stereo partly drawn) | 5.7 nM | 4.11 µM | 8.9 nM | 11 nM | 39600 nM | 32 nM | – | – | 2.6 nM | 4 nM | 29 nM | – | – | – | – | – | – | –
CCCCCOC(=O)[C@@H](NP1(=O)CO[C@@H](Cn2cnc3c(N)ncnc32)CO1)[C@@H](C)CC (stereo partly drawn) | 1.9 nM | 9.96 µM | 2 nM | 2.7 nM | 12000 nM | 7 nM | > 4400 | > 4400 | 0.45 nM | 0.54 nM | 6.5 nM | > 4400 | – | – | 20000 | 1800 | 20000 | 1800
